Reference: patent publication US10023570B2 (Array BioPharma, Inc., priority 2015, dated 2018)
Counter-ions that a name gives are not always drawn. Like-named read-outs stand apart in the source and are kept apart here.

Tests used:
[1] = biological target: Kif5b-RET fusion protein in HEK-293 cells (Homo sapiens, UniProt P07949); assay: cell-based
[2] = biological target: N-terminal GST tagged recombinant human RET cytoplasmic domain (aa 658-end), wild type RET kinase (Homo sapiens (Human), UniProt P07949); assay: RET Enzyme Assay (HTRF KinEASE-TK), wild type RET; format: biochemical; conditions: wild type RET, 1 mM ATP
Chain of N-terminal GST tagged recombinant human RET cytoplasmic domain (aa 658-end), wild type RET kinase (P07949 658-1114): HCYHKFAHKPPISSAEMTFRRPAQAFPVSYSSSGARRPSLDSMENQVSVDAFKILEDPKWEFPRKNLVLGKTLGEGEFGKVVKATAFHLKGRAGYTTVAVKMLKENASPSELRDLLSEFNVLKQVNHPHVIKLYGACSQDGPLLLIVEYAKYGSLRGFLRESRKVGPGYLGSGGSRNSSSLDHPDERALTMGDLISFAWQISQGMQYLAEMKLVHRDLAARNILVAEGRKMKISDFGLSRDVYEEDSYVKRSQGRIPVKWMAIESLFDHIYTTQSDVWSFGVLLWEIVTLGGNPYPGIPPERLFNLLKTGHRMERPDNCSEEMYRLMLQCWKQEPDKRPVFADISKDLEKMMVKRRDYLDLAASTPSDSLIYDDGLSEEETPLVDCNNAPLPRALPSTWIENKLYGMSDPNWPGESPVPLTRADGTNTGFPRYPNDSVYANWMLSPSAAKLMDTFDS

[3] = biological target: human KDR protein in HEK-293 cells (Homo sapiens (Human), UniProt P35968); assay: KDR Cell Assay (phospho-KDR in HEK-293 cells expressing inducible KDR); format: cell-based; conditions: pKDR Cell HEK 10% FBS IC50, HEK-293 cells expressing inducible KDR, VEGF stimulated
Chain of human KDR protein in HEK-293 cells (P35968 20-1356): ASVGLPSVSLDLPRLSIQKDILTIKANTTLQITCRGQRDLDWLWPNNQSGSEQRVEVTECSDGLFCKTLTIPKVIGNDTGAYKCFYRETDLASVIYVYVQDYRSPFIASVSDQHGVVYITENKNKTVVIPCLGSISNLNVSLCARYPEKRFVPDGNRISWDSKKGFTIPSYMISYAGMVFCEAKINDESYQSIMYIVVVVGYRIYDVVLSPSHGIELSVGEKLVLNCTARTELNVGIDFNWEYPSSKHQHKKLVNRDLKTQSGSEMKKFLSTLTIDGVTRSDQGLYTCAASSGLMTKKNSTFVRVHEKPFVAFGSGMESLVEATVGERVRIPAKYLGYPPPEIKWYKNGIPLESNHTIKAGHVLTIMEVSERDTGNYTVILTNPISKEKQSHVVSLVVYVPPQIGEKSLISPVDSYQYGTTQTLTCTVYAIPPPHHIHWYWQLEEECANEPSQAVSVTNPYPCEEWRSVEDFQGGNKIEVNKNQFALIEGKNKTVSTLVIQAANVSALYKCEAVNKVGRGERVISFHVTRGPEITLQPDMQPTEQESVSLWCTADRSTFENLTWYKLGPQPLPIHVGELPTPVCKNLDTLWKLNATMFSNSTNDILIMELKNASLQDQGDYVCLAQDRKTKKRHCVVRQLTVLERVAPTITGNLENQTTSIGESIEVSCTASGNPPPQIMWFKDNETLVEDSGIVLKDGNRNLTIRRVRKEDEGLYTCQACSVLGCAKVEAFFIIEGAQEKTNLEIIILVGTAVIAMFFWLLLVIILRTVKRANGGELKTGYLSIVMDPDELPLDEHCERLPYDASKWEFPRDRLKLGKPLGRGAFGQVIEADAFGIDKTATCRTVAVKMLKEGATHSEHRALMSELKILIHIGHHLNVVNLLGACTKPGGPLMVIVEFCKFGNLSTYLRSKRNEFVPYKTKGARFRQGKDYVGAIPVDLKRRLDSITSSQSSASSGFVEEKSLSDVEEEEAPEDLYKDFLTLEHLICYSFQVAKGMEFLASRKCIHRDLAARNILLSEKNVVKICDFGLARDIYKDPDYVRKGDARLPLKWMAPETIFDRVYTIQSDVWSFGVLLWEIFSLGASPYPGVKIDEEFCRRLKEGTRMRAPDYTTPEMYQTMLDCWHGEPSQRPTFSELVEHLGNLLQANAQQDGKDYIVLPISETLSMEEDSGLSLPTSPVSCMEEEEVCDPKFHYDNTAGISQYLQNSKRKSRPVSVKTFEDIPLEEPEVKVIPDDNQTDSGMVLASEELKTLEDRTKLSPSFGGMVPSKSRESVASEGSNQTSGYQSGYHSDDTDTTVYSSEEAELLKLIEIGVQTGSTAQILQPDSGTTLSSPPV
Summary of the method: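 HEK-293 cells with inducible human KDR were treated with compound for 1 h in DMEM (0.25% DMSO final), then lysed. Phospho-KDR was quantified by Meso Scale immunoassay, expressed as percent of control, and IC50 taken where a 4-parameter logistic fit crossed 50 POC.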

[4] = HEK-293 cells expressing Kif5b-RET, phospho-RET(Tyr1062), read-out: KIF5B-RET pTYR1062 Cell IC50
[5] = read-out: KIF5B-RET pTYR1062 Cell IC50
[6] = HEK-293 cells expressing Kif5b-RET, read-out: KIF5B-RET pTYR1062 Cell IC50

Chain of Kif5b-RET fusion protein in HEK-293 cells (P07949 29-1114 limits assumed): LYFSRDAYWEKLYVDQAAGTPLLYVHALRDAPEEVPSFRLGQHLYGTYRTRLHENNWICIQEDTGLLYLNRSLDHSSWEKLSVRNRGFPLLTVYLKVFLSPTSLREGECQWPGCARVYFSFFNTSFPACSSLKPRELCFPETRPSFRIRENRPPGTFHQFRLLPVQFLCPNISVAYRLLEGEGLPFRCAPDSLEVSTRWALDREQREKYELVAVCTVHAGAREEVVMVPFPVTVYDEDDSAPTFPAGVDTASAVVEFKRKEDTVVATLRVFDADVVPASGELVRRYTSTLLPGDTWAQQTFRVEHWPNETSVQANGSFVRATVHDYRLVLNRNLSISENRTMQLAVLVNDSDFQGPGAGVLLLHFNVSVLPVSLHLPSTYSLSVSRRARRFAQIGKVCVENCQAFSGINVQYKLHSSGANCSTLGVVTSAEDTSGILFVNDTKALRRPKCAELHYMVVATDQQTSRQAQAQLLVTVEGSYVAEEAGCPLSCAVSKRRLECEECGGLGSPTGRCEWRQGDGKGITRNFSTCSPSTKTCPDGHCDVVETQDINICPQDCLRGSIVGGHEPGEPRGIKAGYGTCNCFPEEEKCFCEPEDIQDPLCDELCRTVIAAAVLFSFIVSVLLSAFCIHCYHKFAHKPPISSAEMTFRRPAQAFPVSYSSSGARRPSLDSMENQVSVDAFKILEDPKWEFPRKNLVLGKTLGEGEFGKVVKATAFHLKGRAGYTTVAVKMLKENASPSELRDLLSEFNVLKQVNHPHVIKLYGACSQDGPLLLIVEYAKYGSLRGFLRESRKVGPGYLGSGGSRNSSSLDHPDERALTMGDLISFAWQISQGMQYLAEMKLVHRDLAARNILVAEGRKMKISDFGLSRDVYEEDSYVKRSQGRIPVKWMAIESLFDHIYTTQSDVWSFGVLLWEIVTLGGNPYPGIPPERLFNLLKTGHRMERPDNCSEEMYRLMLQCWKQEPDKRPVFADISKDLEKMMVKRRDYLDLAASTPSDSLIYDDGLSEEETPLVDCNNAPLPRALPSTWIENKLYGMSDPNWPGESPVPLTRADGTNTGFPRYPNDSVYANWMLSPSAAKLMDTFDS

Row | Compound | IC50 [1, 4] | IC50 [2] | IC50 ([3]; 10% FBS) | IC50 [1, 6] | IC50 [1] | IC50 [3] | IC50 [1, 5]
1 | CC(C)OCCNC(=O)C1CCN(c2ccc(-c3cc(-c4cnn(C)c4)cn4ncc(C#N)c34)cn2)CC1 [Example 234, 1-(5-(3-cyano-6-(1-methyl-1H-pyrazol-4-yl)pyrazolo[1,5-a]pyridin-4-yl)pyridin-2-yl)-N-(2-isopropoxyethyl) piperidine-4-carboxamide] | 0.0319 µM | 0.0256 µM | 1.21 µM |  |  |  | 
2 | Cc1nn(C(C)C)cc1-c1cc(-c2ccc(N3CCN(Cc4ccccc4)CC3)nc2)c2c(C#N)cnn2c1 [Example 614, 4-(6-(4-benzylpiperazin-1-yl)pyridin-3-yl)-6-(1-isopropyl-3-methyl-1H-pyrazol-4-yl)pyrazolo[1,5-a]pyridine-3-carbonitrile] |  | 0.0222 µM |  |  | 0.017 µM | 2.3 µM | 
3 | C[C@H](O)[C@@H](C)N1CCN(c2ccc(-c3cc(-c4cnn(C)c4)cn4ncc(C#N)c34)cn2)CC1 (racemic) [Example 165, rac-4-(6-(4-((2R*,3S*)-3-hydroxybutan-2-yl)piperazin-1-yl)pyridin-3-yl)-6-(1-methyl-1H-pyrazol-4-yl)pyrazolo[1,5-a]pyridine-3-cartonitrile] |  | 0.0248 µM | 2.02 µM |  | 0.0289 µM |  | 
4 | CN(C)CC(=O)N1CCN(c2ccc(-c3cc(-c4cnn(C)c4)cn4ncc(Cl)c34)cn2)CC1 [Example 328, 1-(4-(5-(3-chloro-6-(1-methyl-1H-pyrazol-4-yl)pyrazolo[1,5-a]pyridin-4-yl)pyridin-2-yl)piperazin-1-yl)-2-(dimethylamino)ethanone] | 0.0604 µM | 0.0621 µM | 1.37 µM |  |  |  | 
5 | COc1ccccc1CN1CCN(c2ccc(-c3cc(-c4cnn(C)c4)cn4ncc(C#N)c34)cn2)CC1 [Example 451, 4-(6-(4-(2-methoxybenzyl)piperazin-1-yl)pyridin-3-yl)-6-(1-methyl-1H-pyrazol-4-yl)pyrazolo[1,5-a]pyridine-3-carbonitrile] |  | 0.0049 µM |  |  | 0.0049 µM | 0.593 µM | 
6 | CC(C)COC1CCN(c2ccc(-c3cc(-c4cnn(C)c4)cn4ncc(C#N)c34)cn2)CC1 [Example 197, 4-(6-(4-isobutoxypiperidin-1-yl)pyridin-3-yl)-6-(1-methyl-1H-pyrazol-4-yl)pyrazolo[1,5-a]pyridine-3-carbonitrile] | 0.0396 µM | 0.014 µM | 1.3 µM |  |  |  | 
7 | COCC(=O)N1CCN(c2ccc(-c3cc(-c4cnn(C)c4)cn4ncc(C#N)c34)cn2)CC1 [Example 40, 4-(6-(4-(2-methoxyacetyl)piperazin-1-yl)pyridin-3-yl)-6-(1-methyl-1H-pyrazol-4-yl)pyrazolo[1,5-a]pyridine-3-carbonitrile 2,2,2-trifluoroacetate] |  | 0.0137 µM | 0.221 µM |  |  |  | 0.0112 µM
8 | CCn1cc(-c2cc(-c3ccc(N4CCN(Cc5ccccc5)CC4)nc3)c3c(C#N)cnn3c2)c(C)n1 [Example 609, 4-(6-(4-benzylpiperazin-1-yl)pyridin-3-yl)-6-(1-ethyl-3-methyl-1H-pyrazol-4-yl)pyrazolo[1,5-a]pyridine-3-carbonitrile] |  | 0.0165 µM |  |  | 0.0315 µM | 1.98 µM | 
9 | CC(=O)N1CCN(c2ccc(-c3cc(-c4cnn(C)c4)cn4ncc(Cl)c34)cn2)CC1 [Example 330, 1-(4-(5-(3-chloro-6-(1-methyl-1H-pyrazol-4-yl)pyrazolo[1,5-a]pyridin-4-yl)pyridin-2-yl)piperazin-1-yl)ethanone] | 0.084 µM | 0.0383 µM | 0.566 µM |  |  |  | 
10 | CC(C)NC(=O)CC1CCN(c2ccc(-c3cc(-c4cnn(C)c4)cn4ncc(C#N)c34)cn2)CC1 [Example 249, 2-(1-(5-(3-cyano-6-(1-methyl-1H-pyrazol-4-yl)pyrazolo[1,5-a]pyridin-4-yl)pyridin-2-yl)piperidin-4-yl)-N-isopropylacetamide] | 0.0335 µM | 0.0266 µM | 0.998 µM |  |  |  | 
11 | Cn1cc(-c2cc(-c3ccc(N4CCNCC4)nc3)c3c(Cl)cnn3c2)cn1 [Example 326, 3-chloro-6-(1-methyl-1H-pyrazol-4-yl)-4-(6-(piperazin-1-yl)pyridine-3-yl)pyrazolo[1,5-a]pyridine dihydrochloride] |  | 0.075 µM | 0.579 µM |  |  |  | 0.0704 µM

The next lines start with results.

Row | IC50 [1, 4] | IC50 [2] | IC50 ([3]; 10% FBS) | IC50 [1, 6] | Compound | IC50 [1] | IC50 [3] | IC50 [1, 5]
12 | 0.0313 µM | 0.0145 µM | 1.26 µM |  | Cn1cc(-c2cc(-c3ccc(N4CCN(C(=O)CC(C)(C)O)CC4)nc3)c3c(C#N)cnn3c2)cn1 [Example 79, 4-(6-(4-(3-hydroxy-3-methylbutanoyl)piperazin-1-yl)pyridin-3-yl)-6-(1-methyl-1H-pyrazol-4-yl)pyrazolo[1,5-a]pyridine-3-carbonitrile] |  |  | 
13 | 0.01 µM | 0.0125 µM | 0.505 µM |  | CCC1(C(=O)NCC(C)(C)O)CCN(c2ccc(-c3cc(-c4cnn(C)c4)cn4ncc(C#N)c34)cn2)CC1 [Example 258, 1-(5-(3-cyano-6-(1-methyl-1H-pyrazol-4-yl)pyrazolo[1,5-a]pyridin-4-yl)pyridin-2-yl)-4-ethyl-N-(2-hydroxy-2-methylpropyl) piperidine-4-carboxamide] |  |  | 
14 | 0.0158 µM | 0.0119 µM | 0.444 µM |  | COCC(=O)NC1CCN(c2ccc(-c3cc(-c4cnn(C)c4)cn4ncc(C#N)c34)cn2)CC1 [Example 183, N-(1-(5-(3-cyano-6-(1-methyl-1H-pyrazol-4-yl)pyrazolo[1,5-a]pyridin-4-yl)pyridin-2-yl)piperidin-4-yl)-2-methoxyacetamide] |  |  | 
15 | 0.007 µM | 0.0063 µM | 0.392 µM |  | CC(C)CC(=O)N1CCN(c2ccc(-c3cc(-c4cnn(C)c4)cn4ncc(C#N)c34)cn2)CC1 [Example 75, 6-(1-methyl-1H-pyrazol-4-yl)-4-(6-(4-(3-methylbutanoyl)piperazin-1-yl)pyridin-3-yl)pyrazolo[1,5-a]pyridine-3-carbonitrile] |  |  | 
16 | 0.0052 µM | 0.0083 µM | 0.0713 µM |  | Cn1cc(-c2cc(-c3ccc(N4CCN(S(=O)(=O)NC(C)(C)C)CC4)nc3)c3c(C#N)cnn3c2)cn1 [Example 137, N-(tert-butyl)-4-(5-(3-cyano-6-(1-methyl-1H-pyrazol-4-yl)pyrazolo[1,5-a]pyridin-4-yl)pyridin-2-yl)piperazine-1-sulfonamide] |  |  | 
17 | 0.0549 µM | 0.0104 µM | 0.923 µM |  | C[C@@H](O)CC(=O)N1CCN(c2ccc(-c3cc(-c4cnn(C)c4)cn4ncc(C#N)c34)cn2)CC1 [Example 55, (R)-4-(6-(4-(3-hydroxybutanoyl)piperazin-1-yl)pyridin-3-yl)-6-(1-methyl-1H-pyrazol-4-yl)pyrazolo[1,5-a]pyridine-3-carbonitrile] |  |  | 
18 | 0.0273 µM | 0.0136 µM | 0.511 µM |  | C[C@@H](NC(=O)C1CCN(c2ccc(-c3cc(-c4cnn(C)c4)cn4ncc(C#N)c34)cn2)CC1)C(F)(F)F [Example 233, (R)-1-(5-(3-cyano-6-(1-methyl-1H-pyrazol-4-yl)pyrazolo[1,5-a]pyridin-4-yl)pyridin-2-yl)-N-(1,1,1-trifluoropropan-2-yl)piperidine-4-carboxamide] |  |  | 
19 | 0.0692 µM | 0.0209 µM | 0.66 µM |  | CC(C)CN(C)C(=O)C1CCN(c2ccc(-c3cc(-c4cnn(C)c4)cn4ncc(C#N)c34)cn2)CC1 [Example 244, 1-(5-(3-cyano-6-(1-methyl-1H-pyrazol-4-yl)pyrazolo[1,5-a]pyridin-4-yl)pyridin-2-yl)-N-isobutyl-N-methylpiperidine-4-carboxamide] |  |  | 
20 | 0.0032 µM | 0.004 µM | 0.477 µM |  | COC(CNC(=O)C1CCN(c2ccc(-c3cc(-c4cnn(C)c4)cn4ncc(C#N)c34)cn2)CC1)C(C)C (stereo not drawn) [Example 236, 1-(5-(3-cyano-6-(1-methyl-1H-pyrazol-4-yl)pyrazolo[1,5-a]pyridin-4-yl)pyridin-2-yl)-N-(2-methoxy-3-methylbutyl)piperidine-4-carboxamide] |  |  | 
21 |  | 0.0133 µM |  | 0.0124 µM | C[C@H](CO)Cn1cc(-c2cc(-c3ccc(N4CCN(Cc5ccccc5)CC4)nc3)c3c(C#N)cnn3c2)cn1 [Example 593, (S)-4-(6-(4-benzylpiperazin-1-yl)pyridine-3-yl)-6-(1-(3-hydroxy-2-methylpropyl)-1H-pyrazol-4-yl)pyrazolo[1,5-a]pyridine-3-carbonitrile] |  | 0.154 µM | 
22 |  | 0.0052 µM |  | 0.0156 µM | N#Cc1cnn2cc(-c3cnn(C(F)F)c3)cc(-c3ccc(N4CCN(Cc5ccccn5)CC4)nc3)c12 [Example 586, 6-(1-(difluoromethyl)-1H-pyrazol-4-yl)-4-(6-(4-(pyridine-2-ylmethyl)piperazin-1-yl)pyridin-3-yl)pyrazolo[1,5-a]pyridine-3-carbonitrile] |  | ≥ 5 µM | 
23 | 0.0355 µM | 0.016 µM | 0.896 µM |  | CC(C)C[C@H](O)C(=O)N1CCN(c2ccc(-c3cc(-c4cnn(C)c4)cn4ncc(C#N)c34)cn2)CC1 [Example 56, (S)-4-(6-(4-(2-hydroxy-4-methylpentanoyl)piperazin-1-yl)pyridin-3-yl)-6-(1-methyl-1H-pyrazol-4-yl)pyrazolo[1,5-a]pyridine-3-carbonitrile] |  |  | 
24 | 0.0063 µM | 0.0045 µM | 0.223 µM |  | Cn1cc(-c2cc(-c3ccc(N4CCC(C(=O)NCCC(F)(F)F)CC4)nc3)c3c(C#N)cnn3c2)cn1 [Example 242, 1-(5-(3-cyano-6-(1-methyl-1H-pyrazol-4-yl)pyrazolo[1,5-a]pyridin-4-yl)pyridin-2-yl)-N-(3,3,3-trifluoropropyl)piperidine-4-carboxamide] |  |  | 
